{"source": "patent US12350277B2", "about": "“Compositions and methods of use for treating aberrant inflammation in peri-ocular secretory glands or at the ocular surface” (CS Pharmaceuticals Limited, priority 2017, dated 2025)", "origin": "cited, not measured here", "system": "NFκB pathway", "conditions": "A549, HeLa, MG63, 16HBE, and H9 cell lines; IL-1β / TNFα stimulation; cited from earlier work", "data": [{"smiles": "CCC(=O)O[C@]1(C(=O)SCF)[C@H](C)C[C@H]2[C@@H]3C[C@H](F)C4=CC(=O)C=C[C@]4(C)[C@@]3(F)[C@@H](O)C[C@@]21C", "note": "[FP, fluticasone propionate, reference compound]", "values": [{"measurement": "transrepression of NFκB pathway activation (IL-6, IL-8 release)", "value": "potently and efficiently transrepress"}]}]}
